Results: US11053204B2, “Pyrimidinyloxy benzene derivatives as herbicides” (FMC Corporation, priority 2015, dated 2021)

Tests used:
Format in all cases: in vivo
[1] = system: galium (catchweed bedstraw, Galium aparine); assay: Test C preemergence, plant response rating
[2] = system: johnsongrass (Sorghum halepense); assay: Test C preemergence, plant response rating
[3] = system: barnyardgrass (Echinochloa crus-galli); assay: Test C preemergence, plant response rating; settings: Echinochloa crus-galli, pre-emergence, Preemergence
[4] = system: pigweed, palmer (palmer pigweed, Amaranthus palmeri); assay: Test C preemergence, plant response rating
kochia (Kochia scoparia) = assay: Test C preemergence, plant response rating
[5] = system: nightshade (eastern black nightshade, Solanum ptycanthum); assay: Test C preemergence, plant response rating
[6] = system: windgrass (Apera spica-venti); assay: Test C preemergence, plant response rating
[7] = system: Canada thistle (Cirsium arvense); assay: Test C postemergence, plant response rating; settings: for Canada Thistle plant response rating: scale 0 to 100 (0 no effect, 100 complete control)
Method in brief: (§1)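 Both timings shared one formulation, a non-phytotoxic solvent mixture with surfactant, and a greenhouse period of 13 to 15 d. Preemergence used seeded loam/sand or silt loam soil, postemergence used 2 to 18 cm plants; visual ratings ran from 0 (no effect) to 100 (complete control).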

[8] = system: buckwheat, wild (wild buckwheat, Polygonum convolvulus); assay: Test C postemergence, plant response rating; settings: for Buckwheat, Wild plant response rating: scale 0 to 100 (0 no effect, 100 complete control)
Method in brief: as §1

[9] = system: field poppy (Papaver rhoeas); assay: Test C postemergence, plant response rating; settings: for Field Poppy plant response rating: scale 0 to 100 (0 no effect, 100 complete control)
Method in brief: as §1

[10] = system: field violet (Viola arvensis); assay: Test C postemergence, plant response rating; settings: for Field Violet plant response rating: scale 0 to 100 (0 no effect, 100 complete control)
Method in brief: as §1

[11] = system: geranium, cutleaf (cutleaf geranium, Geranium dissectum); assay: Test C postemergence, plant response rating; settings: for Geranium, Cutleaf plant response rating: scale 0 to 100 (0 no effect, 100 complete control)
Method in brief: as §1

[12] = system: johnsongrass (Sorghum halepense); assay: Test C postemergence, plant response rating; settings: for Johnsongrass plant response rating: scale 0 to 100 (0 no effect, 100 complete control)
Method in brief: as §1

[13] = system: nightshade (eastern black nightshade, Solanum ptycanthum); assay: Test C postemergence, plant response rating; settings: for Nightshade plant response rating: scale 0 to 100 (0 no effect, 100 complete control)
Method in brief: as §1

[14] = system: pigweed, palmer (palmer pigweed, Amaranthus palmeri); assay: Test C postemergence, plant response rating; settings: for Pigweed, Palmer plant response rating: scale 0 to 100 (0 no effect, 100 complete control)
Method in brief: as §1

[15] = system: speedwell (bird's-eye speedwell, Veronica persica); assay: Test C postemergence, plant response rating; settings: for Speedwell plant response rating: scale 0 to 100 (0 no effect, 100 complete control)
Method in brief: as §1

[16] = system: surinam grass (Brachiaria decumbens); assay: Test C postemergence, plant response rating
Method in brief: as §1

[17] = system: wild mustard (Sinapis arvensis); assay: Test C postemergence, plant response rating; settings: for Mustard, Wild plant response rating: scale 0 to 100 (0 no effect, 100 complete control)
Method in brief: as §1

[18] = system: wild poinsettia (Euphorbia heterophylla); assay: Test C postemergence, plant response rating; settings: for Poinsettia, Wild plant response rating: scale 0 to 100 (0 no effect, 100 complete control)
Method in brief: as §1

[19] = system: windgrass (Apera spica-venti); assay: Test C postemergence, plant response rating
Method in brief: as §1

[20] = 125 g ai/ha, scale 0 to 100 (0 no effect, 100 complete control)

In the case of `O=C(CCC(F)(F)F)c1c(Cl)cccc1Oc1ncc(Cl)cn1` [Compound 107, 1-[2-chloro-6-[(5-chloro-2-pyrimidinyl)oxy]phenyl]-4,4,4-trifluoro-1-butanone], the “Plant response rating, Galium” value ([1]; 31 g ai/ha, scale 0 to 100) is reported as 60, the “Plant response rating, Galium” value ([1]; 62 g ai/ha, scale 0 to 100) is reported as 90 and the “Plant response rating, Galium” value ([1]; 125 g ai/ha, scale of 0 to 100) is reported as 95. The “Plant response rating, Johnsongrass” value ([2]; 31 g ai/ha, scale 0 to 100) was 30, the “Plant response rating, Johnsongrass” value ([2]; 62 g ai/ha, scale 0 to 100) was 70 and the “Plant response rating, Johnsongrass” value ([2]; 125 g ai/ha, scale of 0 to 100) was 80. It also gave a pest or weed control at 125 g/ha ([3]; 125 g ai/ha, scale of 0 to 100) of 100%, a pest or weed control at 16 g/ha ([3]; 16 g ai/ha, scale 0 to 100) of 65% and a pest or weed control at 31 g/ha ([3]; 31 g ai/ha, scale 0 to 100) of 85%. For the same molecule, the pest or weed control at 62 g/ha ([3]; 62 g ai/ha, scale 0 to 100) was 100%, the “Plant response rating, Pigweed, Palmer” value ([4]; 31 g ai/ha, scale 0 to 100) was 100 and the “Plant response rating, Pigweed, Palmer” value ([4]; 62 g ai/ha, scale 0 to 100) was 100. The “Plant response rating, Pigweed, Palmer” value ([4]; 125 g ai/ha, scale of 0 to 100) was 100, the “Plant response rating, Kochia” value (kochia (Kochia scoparia); 31 g ai/ha, scale 0 to 100) was 100 and the “Plant response rating, Kochia” value (kochia (Kochia scoparia); 62 g ai/ha, scale 0 to 100) was 100. The “Plant response rating, Kochia” value (kochia (Kochia scoparia); 125 g ai/ha, scale of 0 to 100) was 100, the “Plant response rating, Nightshade” value ([5]; 31 g ai/ha, scale 0 to 100) was 60 and the “Plant response rating, Nightshade” value ([5]; 62 g ai/ha, scale 0 to 100) was 80. The “Plant response rating, Nightshade” value ([5]; 125 g ai/ha, scale of 0 to 100) was 90, the “Plant response rating, Windgrass” value ([6]; 31 g ai/ha, scale 0 to 100) was 100 and the “Plant response rating, Windgrass” value ([6]; 62 g ai/ha, scale 0 to 100) was 100. For the same molecule, the “Plant response rating, Windgrass” value ([6]; 125 g ai/ha, scale of 0 to 100) was 100, the “Plant response rating, Canada Thistle” value ([7]; 16 g ai/ha, scale of 0 to 100) was 80 and the “Plant response rating, Canada Thistle” value ([7]; 31 g ai/ha, scale 0 to 100) was 85. The “Canada Thistle plant response rating” value ([7]; 62 g ai/ha) was 90, the “Canada Thistle plant response rating” value ([7]; 125 g ai/ha) was 90 and the “Plant response rating, Buckwheat, Wild” value ([8]; 16 g ai/ha, scale of 0 to 100) was 45. The “Plant response rating, Buckwheat, Wild” value ([8]; 31 g ai/ha, scale 0 to 100) was 75, the “Buckwheat, Wild plant response rating” value ([8]; 62 g ai/ha) was 75 and the “Buckwheat, Wild plant response rating” value ([8]; 125 g ai/ha) was 100. The “Plant response rating, Field Poppy” value ([9]; 16 g ai/ha, scale of 0 to 100) was 80, the “Plant response rating, Field Poppy” value ([9]; 31 g ai/ha, scale 0 to 100) was 98 and the “Field Poppy plant response rating” value ([9]; 62 g ai/ha) was 98. For the same molecule, the “Field Poppy plant response rating” value ([9]; 125 g ai/ha) was 100, the “Plant response rating, Field Violet” value ([10]; 16 g ai/ha, scale of 0 to 100) was 95 and the “Plant response rating, Field Violet” value ([10]; 31 g ai/ha, scale 0 to 100) was 98. For the same molecule, the “Field Violet plant response rating” value ([10]; 62 g ai/ha) was 98, the “Field Violet plant response rating” value ([10]; 125 g ai/ha) was 100 and the “Plant response rating, Geranium, Cutleaf” value ([11]; 16 g ai/ha, scale of 0 to 100) was 25. The “Plant response rating, Geranium, Cutleaf” value ([11]; 31 g ai/ha, scale 0 to 100) was 35, the “Geranium, Cutleaf plant response rating” value ([11]; 62 g ai/ha) was 60 and the “Geranium, Cutleaf plant response rating” value ([11]; 125 g ai/ha) was 75. For the same molecule, the “Plant response rating, Johnsongrass” value ([12]; 16 g ai/ha, scale of 0 to 100) was 20, the “Plant response rating, Johnsongrass” value ([12]; 31 g ai/ha, scale 0 to 100) was 10 and the “Johnsongrass plant response rating” value ([12]; 62 g ai/ha) was 35. The “Johnsongrass plant response rating” value ([12]; 125 g ai/ha) was 98, the “Plant response rating, Nightshade” value ([13]; 16 g ai/ha, scale of 0 to 100) was 75 and the “Plant response rating, Nightshade” value ([13]; 31 g ai/ha, scale 0 to 100) was 90. The “Nightshade plant response rating” value ([13]; 62 g ai/ha) was 98, the “Nightshade plant response rating” value ([13]; 125 g ai/ha) was 100 and the “Plant response rating, Pigweed, Palmer” value ([14]; 16 g ai/ha, scale of 0 to 100) was 90. The “Plant response rating, Pigweed, Palmer” value ([14]; 31 g ai/ha, scale 0 to 100) was 95, the “Pigweed, Palmer plant response rating” value ([14]; 62 g ai/ha) was 100 and the “Pigweed, Palmer plant response rating” value ([14]; 125 g ai/ha) was 100. The “Plant response rating, Speedwell” value ([15]; 16 g ai/ha, scale of 0 to 100) was 100, the “Plant response rating, Speedwell” value ([15]; 31 g ai/ha, scale 0 to 100) was 100 and the “Speedwell plant response rating” value ([15]; 62 g ai/ha) was 100. For the same molecule, the “Speedwell plant response rating” value ([15]; 125 g ai/ha) was 100, the “Plant response rating, Surinam Grass” value ([16]; 16 g ai/ha, scale of 0 to 100) was 10 and the “Plant response rating, Surinam Grass” value ([16]; 31 g ai/ha, scale 0 to 100) was 25. For the same molecule, the “Surinam Grass plant response rating” value [16, 20] was 35, the “Plant response rating, Mustard, Wild” value ([17]; 16 g ai/ha, scale of 0 to 100) was 85 and the “Plant response rating, Mustard, Wild” value ([17]; 31 g ai/ha, scale 0 to 100) was 90. For the same molecule, the “Mustard, Wild plant response rating” value ([17]; 62 g ai/ha) was 95, the “Mustard, Wild plant response rating” value ([17]; 125 g ai/ha) was 100 and the “Plant response rating, Poinsettia, Wild” value ([18]; 16 g ai/ha, scale of 0 to 100) was 70. The “Plant response rating, Poinsettia, Wild” value ([18]; 31 g ai/ha, scale 0 to 100) was 75, the “Poinsettia, Wild plant response rating” value ([18]; 62 g ai/ha) was 90 and the “Poinsettia, Wild plant response rating” value ([18]; 125 g ai/ha) was 90. For the same molecule, the “Plant response rating, Windgrass” value ([19]; 16 g ai/ha, scale of 0 to 100) was 5, the “Plant response rating, Windgrass” value ([19]; 31 g ai/ha, scale 0 to 100) was 15 and the “Windgrass plant response rating” value [19, 20] was 50.
